One block for each compound: values may come before it.
Experiments:
[1] = test system: CCRF-CEM; assay: Antiproliferative activity against human CCRF-CEM cells; type: functional, cell-based
[2] = test system: HeLa; assay: Cytotoxicity against human HeLa cells assessed as reduction in cell viability after 72 hrs by MTT assay; type: functional, cell-based
[3] = test system: HL-60; assay: Antiproliferative activity against human HL-60 cells; type: functional, cell-based
[4] = test system: U-937; assay: Antiproliferative activity against human U-937 cells; type: functional, cell-based
[5] = test system: MCF7; assay: Anticancer activity against human MCF7 cells; type: functional, cell-based
[6] = test system: Detroit 562; assay: Antiproliferative activity against human Detroit 562 cells; type: functional, cell-based
[7] = test system: HCT-116; assay: Antiproliferative activity against human HCT-116 cells assessed as inhibition of cell growth measured after 72 hrs by MTT assay; type: functional, cell-based; conditions: HCT-116, 72 h
[8] = Antiproliferative activity against human WS1 cells assessed as reduction in cell viability incubated for 48 hrs by MTT assay; type: toxicity, cell-based
[9] = test system: A549; assay: Antiproliferative activity against human A549 cells assessed as reduction in cell viability incubated for 48 hrs by MTT assay; type: toxicity, cell-based; conditions: A549, 48 h
[10] = test system: HepG2; assay: Cytotoxicity against human HepG2 cells assessed as reduction in cell viability incubated for 48 hrs by MTT assay; type: functional, cell-based; conditions: HepG2, 48 h
[11] = test system: HT-29; assay: Cytotoxicity against human HT-29 cells assessed as reduction in cell viability incubated for 48 hrs by MTT assay; type: functional, cell-based; conditions: HT-29, 48 h
[12] = test system: MCF7; assay: Antiproliferative activity against human MCF7 cells assessed as reduction in cell viability; type: functional, cell-based
[13] = test system: MDA-MB-231; assay: Antiproliferative activity against human MDA-MB-231 cells assessed as reduction in cell viability; type: functional, cell-based
[14] = test system: BT-474; assay: Antiproliferative activity against human BT-474 cells assessed as inhibition of cell growth measured after 72 hrs by MTT assay; type: functional, cell-based; conditions: BT-474, 72 h
[15] = test system: AGS; assay: Anticancer activity against human AGS cells; type: functional, cell-based
[16] = test system: HCT-116; assay: Cytotoxicity against human HCT-116 cells assessed as reduction in cell viability measured after 48 hrs by MTT assay; type: functional, cell-based; conditions: HCT-116, 48 h
[17] = test system: HepG2; assay: Antiproliferative activity against human HepG2 cells assessed as inhibition of cell growth measured after 72 hrs by MTT assay; type: functional, cell-based; conditions: HepG2, 72 h
[18] = test system: HCT-116; assay: Cytotoxicity against human HCT-116 cells assessed as reduction in cell growth incubated for 24 hrs by MTT assay; type: functional, cell-based; conditions: HCT-116, 24 h
[19] = test system: K562; assay: Cytotoxicity against human K562 cells assessed as reduction in cell growth incubated for 72 hrs by MTT assay; type: functional, cell-based; conditions: K562, 72 h
[20] = test system: PC-3; assay: Cytotoxicity against human PC-3 cells assessed as reduction in cell growth incubated for 72 hrs by MTT assay; type: functional, cell-based; conditions: PC-3, 72 h
[21] = test system: K562; assay: Antiproliferative activity against human K562 cells assessed as reduction in cell viability incubated for 72 hrs by MTT assay; type: functional, cell-based; conditions: K562, 72 h
[22] = test system: PC-3; assay: Antiproliferative activity against human PC-3 cells assessed as reduction in cell viability incubated for 72 hrs by MTT assay; type: functional, cell-based; conditions: PC-3, 72 h
[23] = test system: HeLa; assay: Anticancer activity against human HeLa cells assessed as reduction in cell viability by MTT assay; type: functional, cell-based
[24] = test system: A549; assay: Anticancer activity against human A549 cells assessed as reduction in cell viability by MTT assay; type: functional, cell-based
[25] = test system: SGC-7901; assay: Antiproliferative activity against human SGC-7901 cells; type: functional, cell-based
[26] = test system: SCC-25; assay: Antiproliferative activity against human SCC-25 cells; type: functional, cell-based
[27] = test system: Fibroblast; assay: Antiproliferative activity against human Fibroblast cells; type: functional, cell-based

SMILES: CC(=O)O[C@@H]1[C@H](OC(C)=O)[C@H](OC(C)=O)CO[C@H]1n1cc(COC(=O)[C@]2(C)CCC[C@@]3(C)[C@@H]4CC[C@@]5(C)C[C@]4(CC[C@@H]32)CC5=O)nn1
- IC50 [2]: 1700 nM

SMILES: Nc1ccc(-c2nnc(Sc3nc4ccccc4n4c(Nc5ccccc5)nnc34)o2)cc1
- IC50 [3]: 2720 nM
- IC50 [4]: 2650 nM

SMILES: COCCOc1cc2ncnc(Nc3cccc(-c4cn(-c5ccccc5/C=C/C(=O)c5cc(OC)c(OC)c(OC)c5)nn4)c3)c2cc1OCCOC
- IC50 [6]: 673 nM

SMILES: Cc1ccc(-n2ncc(CN3C(=O)C(F)(F)c4cc(Br)ccc43)n2)cc1Nc1nccc(-c2cccnc2)n1
- IC50 at 48 h [8]: 18600 nM
- IC50 [9]: 7300 nM

SMILES: O=c1oc2ccccc2c(O)c1Sc1nnc(-c2ccc(Cl)cc2)o1
- IC50 [10]: 3460 nM
- IC50 [11]: 18600 nM

SMILES: COc1cc(C(=O)/C=C/c2ccccc2)cc(OC)c1OC
- IC50 [6]: 3070 nM

SMILES: COc1ccc(Cn2cc(Cn3c(=O)c(-c4nc5ccccc5[nH]4)cc4ccccc43)nn2)c(OC)c1OC
- IC50 [14]: 590 nM

SMILES: O=c1cc(-c2ccccc2)c2ccc(OCc3nncn3-c3ccc(Cl)cc3)cc2o1
- IC50 [15]: 2630 nM

SMILES: CC(=O)O[C@@H]1O[C@H](Cn2cc(COc3cccc4cccnc34)nn2)[C@H](OC(C)=O)[C@H](OC(C)=O)[C@H]1OC(C)=O
- IC50 [16]: 10800 nM

SMILES: Cc1ccc(/N=N/c2sc(N/N=C/c3cn(-c4ccccc4)nc3-c3nnn(-c4ccc(Br)cc4)c3C)nc2C)cc1
- IC50 [17]: 2300 nM

SMILES: C=C(C)[C@@H]1CC[C@]2(CO)CC[C@]3(C)[C@H](CC[C@@H]4[C@@]5(C)Cc6nn(C(C)=O)nc6C(C)(C)[C@@H]5CC[C@]43C)[C@@H]12
- IC50 [18]: 5670 nM

SMILES: Cc1coc2c1C(=O)C(=O)c1c-2ccc2c1CCCC2(C)C [TANSHINONE IIA]
- IC50 [19]: 4600 nM
- IC50 [20]: 3200 nM

SMILES: C=C(C)[C@@H]1CC[C@]2(COC(C)=O)CC[C@]3(C)[C@H](CC[C@@H]4[C@@]5(C)Cc6nn(C(C)=O)nc6C(C)(C)[C@@H]5CC[C@]43C)[C@@H]12
- IC50 [18]: 22500 nM

SMILES: CC(C)CCC1=C(OCc2cn(-c3cccc(Cl)c3)nn2)C(=O)c2ccccc2C1=O
- IC50 [26]: 9810 nM
- IC50 [27]: 210000 nM

More lines, now with the values ahead:

- IC50 [1]: 3310 nM
SMILES: COc1cc(/C=C/C(=O)/C(Cc2cnnn2Cc2ccc(F)cc2)=C(O)/C=C/c2ccc(O)c(OC)c2)ccc1O

- IC50 [3]: 2070 nM
- IC50 [4]: 820 nM
SMILES: CNc1nc2ccccc2n2c(CCc3ccccc3)cnc12

- IC50 [5]: 300 nM
SMILES: Cc1cc(=O)oc2cc(-n3cc(-c4cccc(-c5cn(-c6ccc7c(C)cc(=O)oc7c6)nn5)c4)nn3)ccc12

- IC50 [7]: 500 nM
SMILES: CCc1nnc2c(-c3ccccc3)cc3c(Br)c(OC)c(OC)cc3n12

- IC50 [12]: 1340 nM
- IC50 [13]: 1790 nM
SMILES: CC(C)[C@@H]1CC[C@@H](C)C[C@@H]1On1cc(CN2C(=O)C(=O)c3ccccc32)nn1

- IC50 [21]: 900 nM
- IC50 [22]: 1400 nM
SMILES: CC(C)(C)c1ccc(-c2cn(Cc3cc4c(o3)-c3ccccc3C(=O)C4=O)nn2)cc1

- IC50 [23]: 29.1 nM
- IC50 [24]: 40.4 nM
SMILES: O=Cc1cc(Cc2ccc3oc(C(=O)c4ccc(Cl)cc4)cc3c2)ccc1OCc1cn(-c2ccccc2C(F)(F)F)nn1

- IC50 [25]: 52200 nM
SMILES: CC1(C)CC[C@]23CC[C@]4(C)[C@H](CC[C@@H]5[C@@]6(C)CC[C@H](O)C(C)(C)[C@@H]6CC[C@]54C)[C@H]2[C@H]1OC3 [ALLOBETULIN]

- IC50 [1]: 10500 nM
SMILES: COc1cc(/C=C/C(=O)CC(=O)/C=C/c2ccc(O)c(OC)c2)ccc1O [CURCUMIN]

Reference: ChEMBL document CHEMBL5608172, “Structural modification strategies of triazoles in anticancer drug development” (Eur J Med Chem, 2024)
